Columns and labels:
PTPN2 [1] = biological target: T1, PTPN2 (Homo sapiens, UniProt P17706); assay: HiBiT-Degradation 293T.109 PTPN2 (Nano-Glo HiBiT Lytic Assay); type: cell-based; details: 293T.109 (HiBiT-PTPN2) cells, 24.0 hours
T1 construct: expressed in transfected cells; host or cells: 293T (293T.109 HiBiT-PTPN2 line; parental 293T WT from ATCC)
T1 sequence (P17706 1-415): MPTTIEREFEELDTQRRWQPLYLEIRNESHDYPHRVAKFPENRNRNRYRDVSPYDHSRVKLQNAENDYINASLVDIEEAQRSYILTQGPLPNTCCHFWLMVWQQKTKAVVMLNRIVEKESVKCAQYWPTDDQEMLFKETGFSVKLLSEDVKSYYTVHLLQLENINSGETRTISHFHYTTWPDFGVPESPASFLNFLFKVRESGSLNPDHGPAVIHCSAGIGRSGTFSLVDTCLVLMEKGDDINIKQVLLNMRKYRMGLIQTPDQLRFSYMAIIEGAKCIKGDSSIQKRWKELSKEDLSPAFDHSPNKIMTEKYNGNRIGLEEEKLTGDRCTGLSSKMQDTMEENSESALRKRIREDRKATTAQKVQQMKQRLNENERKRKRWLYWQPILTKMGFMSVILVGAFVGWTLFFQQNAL
Procedure, shortened: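 Luminescence from a lytic HiBiT read gave PTPN2 levels after 24 h compound exposure at 37° C. Compounds were tested at 11 half-log points from a 10 μM top concentration, in duplicate. The cells were 293T engineered with an N-terminal HiBiT–PTPN2 fusion, plated at 5000 per well, with untreated wells as negative control and no-reagent wells as positive control.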

PTPN2 [2] = assay: HiBiT-Degradation B16F10.4 PTPN2; type: cell-based; details: B16F10.4 cells, 24.0 hours

DC50 (PTPN2 [1]) | DC50 (PTPN2 [2]) | Compound
10 to 50 nM | 50 to 200 nM | Cn1c(=O)n([C@H]2CCC(=O)NC2=O)c2ccc(C3CCN(CC(=O)NCCOc4ccc5cc(O)c(N6CC(=O)NS6(=O)=O)c(F)c5c4)CC3)cc21 [Example 93, 2-[4-[1-[(3S)-2,6-dioxo-3-piperidyl]-3-methyl-2-oxo-benzimidazol-5-yl]-1-piperidyl]-N-[2-[[8-fluoro-6-hydroxy-7-(1,1,4-trioxo-1,2,5-thiadiazolidin-2-yl)-2-naphthyl]oxy]ethyl]acetamide]
200 to 1000 nM | 200 to 1000 nM | CN(c1ccc(C2CCN(CC(=O)NCCOc3ccc4cc(O)c(N5CC(=O)NS5(=O)=O)c(F)c4c3)CC2)cc1)C1CCC(=O)NC1=O (stereo not shown) [Example 94, 2-[4-[4-[(2,6-dioxo-3-piperidyl)-methyl-amino]phenyl]-1-piperidyl]-N-[2-[[8-fluoro-6-hydroxy-7-(1,1,4-trioxo-1,2,5-thiadiazolidin-2-yl)-2-naphthyl]oxy]ethyl]acetamide]
10 to 50 nM | 50 to 200 nM | Cn1c(=O)n(C2CCC(=O)NC2=O)c2ccc(C3CCN(CCCCCOc4ccc5cc(O)c(N6CC(=O)NS6(=O)=O)c(F)c5c4)CC3)cc21 (stereo not shown) [Example 95, 3-[5-[1-[5-[[8-fluoro-6-hydroxy-7-(1,1,4-trioxo-1,2,5-thiadiazolidin-2-yl)-2-naphthyl]oxy]pentyl]-4-piperidyl]-3-methyl-2-oxo-benzimidazol-1-yl]piperidine-2,6-dione]
50 to 200 nM | 50 to 200 nM | O=C(CN1CCC(c2ccc(NC3CCC(=O)NC3=O)c(Oc3ccccc3)c2)CC1)NCCOc1ccc2cc(O)c(N3CC(=O)NS3(=O)=O)c(F)c2c1 (stereo not shown) [Example 96, 2-[4-[4-[(2,6-dioxo-3-piperidyl)amino]-3-phenoxy-phenyl]-1-piperidyl]-N-[2-[[8-fluoro-6-hydroxy-7-(1,1,4-trioxo-1,2,5-thiadiazolidin-2-yl)-2-naphthyl]oxy]ethyl]acetamide]
50 to 200 nM | 200 to 1000 nM | CN(CCOc1ccc2cc(O)c(N3CC(=O)NS3(=O)=O)c(F)c2c1)C(=O)CN1CCC(c2ccc3c(c2)n(C)c(=O)n3C2CCC(=O)NC2=O)CC1 (stereo not shown) [Example 97, 2-[4-[1-(2,6-dioxo-3-piperidyl)-3-methyl-2-oxo-benzimidazol-5-yl]-1-piperidyl]-N-[2-[[8-fluoro-6-hydroxy-7-(1,1,4-trioxo-1,2,5-thiadiazolidin-2-yl)-2-naphthyl]oxy]ethyl]-N-methyl-acetamide]
10 to 50 nM | 50 to 200 nM | Cn1c(=O)n(C2CCC(=O)NC2=O)c2ccc(C3CCN(CCCCCCOc4ccc5cc(O)c(N6CC(=O)NS6(=O)=O)c(F)c5c4)CC3)cc21 (stereo not shown) [Example 98, 3-[5-[1-[6-[[8-fluoro-6-hydroxy-7-(1,1,4-trioxo-1,2,5-thiadiazolidin-2-yl)-2-naphthyl]oxy]hexyl]-4-piperidyl]-3-methyl-2-oxo-benzimidazol-1-yl]piperidine-2,6-dione]
50 to 200 nM | 50 to 200 nM | Cn1c(=O)n(C2CCC(=O)NC2=O)c2ccc(N3CCC(CNC(=O)c4ccc5c(F)c(N6CC(=O)NS6(=O)=O)c(O)cc5c4)CC3)cc21 (stereo not shown) [Example 99, N-[[1-[1-(2,6-dioxo-3-piperidyl)-3-methyl-2-oxo-benzimidazol-5-yl]-4-piperidyl]methyl]-5-fluoro-7-hydroxy-6-(1,1,4-trioxo-1,2,5-thiadiazolidin-2-yl)naphthalene-2-carboxamide]
200 to 1000 nM | 200 to 1000 nM | Cn1c(=O)n(C2CCC(=O)NC2=O)c2ccc(C3CCN(CC(=O)NCCOc4ccc5cc(O)c(N6CC(=O)NS6(=O)=O)c(Cl)c5c4)CC3)cc21 (stereo not shown) [Example 100, N-[2-[[8-chloro-6-hydroxy-7-(1,1,4-trioxo-1,2,5-thiadiazolidin-2-yl)-2-naphthyl]oxy]ethyl]-2-[4-[1-(2,6-dioxo-3-piperidyl)-3-methyl-2-oxo-benzimidazol-5-yl]-1-piperidyl]acetamide]
200 to 1000 nM | ≥ 1000 nM | O=C1CCC(Nc2ccc(C3CCN(CC(=O)Nc4ccc5c(F)c(N6CC(=O)NS6(=O)=O)c(O)cc5c4)CC3)cc2Oc2ccccc2)C(=O)N1 (stereo not shown) [Example 101, 2-[4-[4-[(2,6-dioxo-3-piperidyl)amino]-3-phenoxy-phenyl]-1-piperidyl]-N-[5-fluoro-7-hydroxy-6-(1,1,4-trioxo-1,2,5-thiadiazolidin-2-yl)-2-naphthyl]acetamide]
200 to 1000 nM | 200 to 1000 nM | Cn1c(=O)n(C2CCC(=O)NC2=O)c2ccc(C3=CCC(CNC(=O)c4ccc5c(F)c(N6CC(=O)NS6(=O)=O)c(O)cc5c4)CC3)cc21 (stereo not shown) [Example 102]
200 to 1000 nM | 50 to 200 nM | Cn1c(=O)n(C2CCC(=O)NC2=O)c2ccc(N3CCC(CC(=O)N4CC=C(c5ccc6cc(O)c(N7CC(=O)NS7(=O)=O)c(F)c6c5)C4)CC3)cc21 (stereo not shown) [Example 103, 3-[5-[4-[2-[3-[8-fluoro-6-hydroxy-7-(1,1,4-trioxo-1,2,5-thiadiazolidin-2-yl)-2-naphthyl]-2,5-dihydropyrrol-1-yl]-2-oxo-ethyl]-1-piperidyl]-3-methyl-2-oxo-benzimidazol-1-yl]piperidine-2,6-dione]
50 to 200 nM | 50 to 200 nM | Cn1c(=O)n(C2CCC(=O)NC2=O)c2ccc(Nc3ccc(C(=O)Nc4ccc5c(F)c(N6CC(=O)NS6(=O)=O)c(O)cc5c4)cc3)cc21 (stereo not shown) [Example 104, 4-[[1-(2,6-dioxo-3-piperidyl)-3-methyl-2-oxo-benzimidazol-5-yl]amino]-N-[5-fluoro-7-hydroxy-6-(1,1,4-trioxo-1,2,5-thiadiazolidin-2-yl)-2-naphthyl]benzamide]
10 to 50 nM | 10 to 50 nM | Cn1c(=O)n(C2CCC(=O)NC2=O)c2ccc(Nc3ccc(CC(=O)Nc4ccc5c(F)c(N6CC(=O)NS6(=O)=O)c(O)cc5c4)cc3)cc21 (stereo not shown) [Example 105, 2-[4-[[1-(2,6-dioxo-3-piperidyl)-3-methyl-2-oxo-benzimidazol-5-yl]amino]phenyl]-N-[5-fluoro-7-hydroxy-6-(1,1,4-trioxo-1,2,5-thiadiazolidin-2-yl)-2-naphthyl]acetamide]
200 to 1000 nM | 200 to 1000 nM | Cn1c(=O)n(C2CCC(=O)NC2=O)c2ccc(-c3ccc(CNC(=O)c4ccc5c(F)c(N6CC(=O)NS6(=O)=O)c(O)cc5c4)cc3)cc21 (stereo not shown) [Example 106]
50 to 200 nM | 50 to 200 nM | Cn1c(=O)n(C2CCC(=O)NC2=O)c2ccc(C3CCN(CCS(=O)(=O)N4CC=C(c5ccc6cc(O)c(N7CC(=O)NS7(=O)=O)c(F)c6c5)C4)CC3)cc21 (stereo not shown) [Example 107, 3-(5-(1-(2-((3-(7-(1,1-dioxido-4-oxo-1,2,5-thiadiazolidin-2-yl)-8-fluoro-6-hydroxynaphthalen-2-yl)-2,5-dihydro-1H-pyrrol-1-yl)sulfonyl)ethyl)piperidin-4-yl)-3-methyl-2-oxo-2,3-dihydro-1H-benzo[d]imidazol-1-yl)piperidine-2,6-dione]
200 to 1000 nM | ≥ 1000 nM | CN(c1ccc(C2CCN(CC(=O)Nc3ccc4c(F)c(N5CC(=O)NS5(=O)=O)c(O)cc4c3)CC2)cc1)C1CCC(=O)NC1=O (stereo not shown) [Example 108, 2-[4-[4-[(2,6-dioxo-3-piperidyl)-methyl-amino]phenyl]-1-piperidyl]-N-[5-fluoro-7-hydroxy-6-(1,1,4-trioxo-1,2,5-thiadiazolidin-2-yl)-2-naphthyl]acetamide]
200 to 1000 nM | 50 to 200 nM | Cn1c(=O)n(C2CCC(=O)NC2=O)c2ccc(N3CCC(C4CCN(C(=O)COc5ccc6cc(O)c(N7CC(=O)NS7(=O)=O)c(F)c6c5)CC4)CC3)cc21 (stereo not shown) [Example 109, 3-[5-[4-[1-[2-[[8-fluoro-6-hydroxy-7-(1,1,4-trioxo-1,2,5-thiadiazolidin-2-yl)-2-naphthyl]oxy]acetyl]-4-piperidyl]-1-piperidyl]-3-methyl-2-oxo-benzimidazol-1-yl]piperidine-2,6-dione]
10 to 50 nM | 50 to 200 nM | Cn1c(=O)n(C2CCC(=O)NC2=O)c2ccc(N3CCN(CCn4cc(-c5ccc6cc(O)c(N7CC(=O)NS7(=O)=O)c(F)c6c5)cn4)CC3)cc21 (stereo not shown) [Example 110, 3-[5-[4-[2-[4-[8-fluoro-6-hydroxy-7-(1,1,4-trioxo-1,2,5-thiadiazolidin-2-yl)-2-naphthyl]pyrazol-1-yl]ethyl]piperazin-1-yl]-3-methyl-2-oxo-benzimidazol-1-yl]piperidine-2,6-dione]
10 to 50 nM | 50 to 200 nM | O=C(CCCCOc1ccc2cc(O)c(N3CC(=O)NS3(=O)=O)c(F)c2c1)NCCCc1ccc2c3c(cccc13)C(=O)N2C1CCC(=O)NC1=O (stereo not shown) [Example 111, N-[3-[1-(2,6-dioxo-3-piperidyl)-2-oxo-benzo[cd]indol-6-yl]propyl]-5-[[8-fluoro-6-hydroxy-7-(1,1,4-trioxo-1,2,5-thiadiazolidin-2-yl)-2-naphthyl]oxy]pentanamide]
10 to 50 nM | 50 to 200 nM | Cn1c(=O)n(C2CCC(=O)NC2=O)c2ccc(C3CCN(CC(=O)N4CC(Oc5ccc6cc(O)c(N7CC(=O)NS7(=O)=O)c(F)c6c5)C4)CC3)cc21 (stereo not shown) [Example 112, 3-[5-[1-[2-[3-[[8-fluoro-6-hydroxy-7-(1,1,4-trioxo-1,2,5-thiadiazolidin-2-yl)-2-naphthyl]oxy]azetidin-1-yl]-2-oxo-ethyl]-4-piperidyl]-3-methyl-2-oxo-benzimidazol-1-yl]piperidine-2,6-dione]
